# Results published in ChEMBL document CHEMBL1157348, “The alkaloid conessine and analogues as potent histamine H3 receptor antagonists” (J Med Chem, 2008).
# Columns and labels:
# [1] = target: T1, Histamine H3 receptor (Homo sapiens, UniProt Q9Y5N1); test: Displacement of [3H]NAMH from human full length histamine H3 receptor expressed in rat C6 cells; assay type: cell-based
# [2] = target: T2, Histamine H3 receptor (Rattus norvegicus, UniProt Q9QYN8); test: Displacement of [3H]NAMH from rat full length histamine H3 receptor expressed in rat C6 cells; assay type: cell-based; settings: read-out: pKi (converted)
# T2 sequence (Q9QYN8 whole entry): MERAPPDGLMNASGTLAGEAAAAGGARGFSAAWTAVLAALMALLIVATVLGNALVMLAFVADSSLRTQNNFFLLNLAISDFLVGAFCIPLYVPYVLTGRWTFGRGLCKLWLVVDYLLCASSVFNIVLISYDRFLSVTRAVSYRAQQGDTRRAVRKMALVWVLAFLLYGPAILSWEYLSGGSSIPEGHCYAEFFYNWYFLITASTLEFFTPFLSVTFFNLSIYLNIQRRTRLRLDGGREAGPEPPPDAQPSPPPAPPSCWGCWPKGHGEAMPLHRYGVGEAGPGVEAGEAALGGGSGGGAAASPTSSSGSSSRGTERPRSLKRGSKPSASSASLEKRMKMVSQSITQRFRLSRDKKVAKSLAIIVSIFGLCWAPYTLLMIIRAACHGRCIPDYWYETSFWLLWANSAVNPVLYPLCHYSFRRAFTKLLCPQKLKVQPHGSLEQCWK
# [3] = target: T1, Histamine H3 receptor; test: Displacement of [3H]NAMH from histamine H3 receptor in human cortex
# [4] = target: T2, Histamine H3 receptor; test: Displacement of [3H]NAMH from histamine H3 receptor in rat cortex; settings: read-out: pKi (converted)
# [5] = target: Histamine H1 receptor (Homo sapiens, UniProt P35367); test: Displacement of [3H]mepyramine from human histamine H1 receptor; settings: read-out: pKi (converted)
# Chain of Histamine H1 receptor (P35367 whole entry): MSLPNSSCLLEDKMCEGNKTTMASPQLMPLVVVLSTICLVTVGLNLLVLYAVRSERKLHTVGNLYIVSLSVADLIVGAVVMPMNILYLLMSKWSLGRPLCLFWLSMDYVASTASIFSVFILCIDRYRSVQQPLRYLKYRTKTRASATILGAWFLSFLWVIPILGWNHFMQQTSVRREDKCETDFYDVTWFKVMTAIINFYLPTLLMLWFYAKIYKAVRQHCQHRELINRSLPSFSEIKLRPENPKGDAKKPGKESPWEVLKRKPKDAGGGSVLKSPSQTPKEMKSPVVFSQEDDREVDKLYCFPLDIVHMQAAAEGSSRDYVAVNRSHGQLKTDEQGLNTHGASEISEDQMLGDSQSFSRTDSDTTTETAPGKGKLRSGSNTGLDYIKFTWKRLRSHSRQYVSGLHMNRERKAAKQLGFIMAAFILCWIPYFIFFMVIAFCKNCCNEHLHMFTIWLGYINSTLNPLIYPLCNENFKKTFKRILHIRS
# [6] = target: Histamine H2 receptor (Homo sapiens, UniProt P25021); test: Displacement of [3H]tiotidine from human histamine H2 receptor; settings: read-out: pKi (converted)
# Chain of Histamine H2 receptor (P25021 whole entry): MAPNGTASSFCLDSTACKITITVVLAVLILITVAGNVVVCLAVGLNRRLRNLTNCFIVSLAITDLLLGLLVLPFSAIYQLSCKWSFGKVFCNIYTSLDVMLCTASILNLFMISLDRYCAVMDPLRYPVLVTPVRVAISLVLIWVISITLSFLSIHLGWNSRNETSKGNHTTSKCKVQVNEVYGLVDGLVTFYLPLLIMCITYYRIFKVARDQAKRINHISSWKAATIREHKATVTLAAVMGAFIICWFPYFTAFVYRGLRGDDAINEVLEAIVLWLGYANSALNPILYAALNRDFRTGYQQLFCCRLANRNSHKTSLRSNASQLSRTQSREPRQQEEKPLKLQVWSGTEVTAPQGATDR
# [7] = target: Histamine H4 receptor (Homo sapiens, UniProt Q9H3N8); test: Displacement of [3H]histamine from human histamine H4 receptor expressed in HEK cells; assay type: cell-based, HEK293; settings: read-out: pKi (converted)
# Chain of Histamine H4 receptor (Q9H3N8 whole entry): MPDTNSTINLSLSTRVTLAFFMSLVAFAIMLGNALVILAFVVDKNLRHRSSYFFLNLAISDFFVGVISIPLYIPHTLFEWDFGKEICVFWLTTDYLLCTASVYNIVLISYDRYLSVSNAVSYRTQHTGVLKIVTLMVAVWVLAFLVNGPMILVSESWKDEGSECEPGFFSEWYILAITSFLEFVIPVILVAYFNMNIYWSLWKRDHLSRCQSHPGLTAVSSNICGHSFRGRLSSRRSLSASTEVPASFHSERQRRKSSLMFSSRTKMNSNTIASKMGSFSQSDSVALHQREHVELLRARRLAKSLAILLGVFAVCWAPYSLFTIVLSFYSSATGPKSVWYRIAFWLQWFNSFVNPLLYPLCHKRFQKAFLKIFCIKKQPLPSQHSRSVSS
# [8] = target: T3, Alpha-2C adrenergic receptor (Homo sapiens, UniProt P18825); test: Displacement of [3H]rauwolscine from human adrenergic alpha 2C4 receptor expressed in mouse LTK- cells; assay type: cell-based
# T3 sequence (P18825 whole entry): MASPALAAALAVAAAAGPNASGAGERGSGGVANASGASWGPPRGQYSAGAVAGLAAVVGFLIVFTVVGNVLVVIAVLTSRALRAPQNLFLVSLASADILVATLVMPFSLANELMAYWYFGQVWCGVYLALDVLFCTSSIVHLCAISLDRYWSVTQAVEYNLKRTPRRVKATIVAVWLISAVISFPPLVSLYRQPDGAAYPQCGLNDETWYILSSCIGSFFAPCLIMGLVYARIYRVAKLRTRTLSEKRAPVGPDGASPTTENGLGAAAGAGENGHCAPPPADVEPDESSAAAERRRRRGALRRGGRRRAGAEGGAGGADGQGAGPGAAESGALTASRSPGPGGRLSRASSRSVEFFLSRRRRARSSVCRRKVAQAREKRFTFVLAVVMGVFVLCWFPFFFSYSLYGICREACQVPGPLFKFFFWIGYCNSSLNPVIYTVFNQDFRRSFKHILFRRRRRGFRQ
# [9] = target: T4, Alpha-2A adrenergic receptor (Homo sapiens, UniProt P08913); test: Displacement of [3H]rauwolscine from human adrenergic alpha 2C10 receptor expressed in mouse LTK- cells; assay type: cell-based
# T4 sequence (P08913 whole entry): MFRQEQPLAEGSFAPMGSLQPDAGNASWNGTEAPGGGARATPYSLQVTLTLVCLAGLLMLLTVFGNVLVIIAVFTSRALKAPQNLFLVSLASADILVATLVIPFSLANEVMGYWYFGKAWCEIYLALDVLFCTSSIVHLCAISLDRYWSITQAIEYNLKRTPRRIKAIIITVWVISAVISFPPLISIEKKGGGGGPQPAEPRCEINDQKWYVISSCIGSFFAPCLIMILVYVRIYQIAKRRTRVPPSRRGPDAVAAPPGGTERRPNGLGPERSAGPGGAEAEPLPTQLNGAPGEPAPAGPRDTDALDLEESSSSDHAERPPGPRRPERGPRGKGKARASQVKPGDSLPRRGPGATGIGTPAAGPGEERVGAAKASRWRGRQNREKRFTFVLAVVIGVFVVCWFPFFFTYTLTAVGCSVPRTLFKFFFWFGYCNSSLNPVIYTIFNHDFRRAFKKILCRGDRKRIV
# [10] = Displacement of [3H]LY278584 from 5HT1 receptor in rat frontal cortex; assay type: tissue-based
# [11] = Displacement of [3H]LY278584 from 5HT2 receptor in rat frontal cortex; assay type: tissue-based
# [12] = Displacement of [3H]LY278584 from 5HT3 receptor in rat frontal cortex; assay type: tissue-based
# [13] = target: T1, Histamine H3 receptor; test: Antagonist activity at human full length histamine H3 receptor expressed in HEK293 cells assessed as inhibition of (R)-alpha-methylhistamine-induced intracellular calcium release by FLIPR; assay type: functional, cell-based
# [14] = target: Histamine H3 receptor (Cavia porcellus, UniProt Q9JI35); test: Antagonist activity at histamine H3 receptor in guinea pig ileum assessed as inhibition of (R)-alpha-methylhistamine-induced response
# Chain of Histamine H3 receptor (Cavia porcellus, UniProt Q9JI35) (Q9JI35 whole entry): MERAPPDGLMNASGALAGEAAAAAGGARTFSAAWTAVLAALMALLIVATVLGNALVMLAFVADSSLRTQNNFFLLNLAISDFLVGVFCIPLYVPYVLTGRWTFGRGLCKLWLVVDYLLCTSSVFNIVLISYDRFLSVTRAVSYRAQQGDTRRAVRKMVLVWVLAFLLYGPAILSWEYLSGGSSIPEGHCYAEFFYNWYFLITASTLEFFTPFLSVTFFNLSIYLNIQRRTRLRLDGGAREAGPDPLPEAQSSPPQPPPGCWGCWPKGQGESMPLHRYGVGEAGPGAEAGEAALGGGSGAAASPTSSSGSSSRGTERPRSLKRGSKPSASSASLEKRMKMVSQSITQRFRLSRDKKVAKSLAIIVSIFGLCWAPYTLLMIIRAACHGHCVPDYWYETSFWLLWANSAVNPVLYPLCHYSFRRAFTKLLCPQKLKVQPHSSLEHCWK
# [15] = Plasma concentration in rat at 1 mg/kg, ip after 1 hr; assay type: ADME, organism-based; design: dose 1 mg/kg, route intraperitoneal
# [16] = Plasma concentration in rat at 1 mg/kg, ip after 5 hrs; assay type: ADME, organism-based; design: dose 1 mg/kg, route intraperitoneal
# [17] = Plasma concentration in rat at 1 mg/kg, ip after 24 hrs; assay type: ADME, organism-based; design: dose 1 mg/kg, route intraperitoneal
# [18] = Drug level in rat blood at 1 mg/kg, ip after 1 hr; assay type: ADME, organism-based; design: dose 1 mg/kg, route intraperitoneal; settings: read-out: Drug uptake
# [19] = Drug level in rat blood at 1 mg/kg, ip after 5 hrs; assay type: ADME, organism-based; design: dose 1 mg/kg, route intraperitoneal; settings: read-out: Drug uptake
# [20] = Drug level in rat blood at 1 mg/kg, ip after 24 hrs; assay type: ADME, organism-based; design: dose 1 mg/kg, route intraperitoneal; settings: read-out: Drug uptake
# [21] = Drug level in rat brain at 1 mg/kg, ip after 1 hr; assay type: ADME, organism-based; design: dose 1 mg/kg, route intraperitoneal; settings: read-out: Drug uptake
# [22] = Drug level in rat brain at 1 mg/kg, ip after 5 hrs; assay type: ADME, organism-based; design: dose 1 mg/kg, route intraperitoneal; settings: read-out: Drug uptake
# [23] = Drug level in rat brain at 1 mg/kg, ip after 24 hrs; assay type: ADME, organism-based; design: dose 1 mg/kg, route intraperitoneal; settings: read-out: Drug uptake
# [24] = Ratio of drug level in brain to plasma at 1 mg/kg, ip after 1 hr; assay type: ADME, organism-based; design: dose 1 mg/kg, route intraperitoneal; settings: rat
# [25] = Ratio of drug level in brain to plasma at 1 mg/kg, ip after 5 hrs; assay type: ADME, organism-based; design: dose 1 mg/kg, route intraperitoneal; settings: rat
# [26] = Ratio of drug level in brain to plasma at 1 mg/kg, ip after 24 hrs; assay type: ADME, organism-based; design: dose 1 mg/kg, route intraperitoneal; settings: rat
# [27] = Selectivity ratio for human adrenergic alpha 2C4 receptor over human H3 receptor
# [28] = test system: Rattus norvegicus; test: Toxicity in rat assessed as CNS side effects at 1.3 to 13 mg/kg, ip; assay type: organism-based; design: dose 1.3-13 mg/kg, route intraperitoneal; settings: in vivo
# [29] = target: T1, Histamine H3 receptor; settings: HEK293
# [30] = target: T1, Histamine H3 receptor; settings: C6
# [31] = target: Histamine H3 receptor (Rattus norvegicus) (UniProt Q9QYN8); test: Antagonist activity at rat full length histamine H3 receptor expressed in HEK cells assessed as inhibition of forskolin-induced cAMP accumulation by SPA; settings: HEK293
# Chain of Histamine H3 receptor (Rattus norvegicus) (Q9QYN8 whole entry): as the sequence (Q9QYN8 whole entry) above
# T1 sequence (Q9Y5N1 whole entry): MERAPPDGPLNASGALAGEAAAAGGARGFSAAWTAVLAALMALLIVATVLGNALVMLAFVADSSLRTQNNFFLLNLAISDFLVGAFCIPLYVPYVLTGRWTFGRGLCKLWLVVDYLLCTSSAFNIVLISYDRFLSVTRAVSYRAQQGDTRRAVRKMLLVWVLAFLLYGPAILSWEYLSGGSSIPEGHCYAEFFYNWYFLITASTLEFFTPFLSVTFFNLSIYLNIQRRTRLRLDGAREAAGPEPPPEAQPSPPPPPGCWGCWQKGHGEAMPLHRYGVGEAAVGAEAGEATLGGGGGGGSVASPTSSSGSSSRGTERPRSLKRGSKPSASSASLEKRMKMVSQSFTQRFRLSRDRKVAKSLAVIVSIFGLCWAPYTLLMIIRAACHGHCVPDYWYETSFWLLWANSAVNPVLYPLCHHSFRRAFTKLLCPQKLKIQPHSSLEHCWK
smiles,measurement,setting,value
C[C@H]1[C@H]2CC[C@H]3[C@@H]4CC=C5C[C@@H](N(C)C)CC[C@]5(C)[C@H]4CC[C@]23CN1C [CONESSINE],Ki,[1],5.37 nM
same,Ki,[2],12.3 nM
same,Ki,[3],3.47 nM
same,Ki,[4],24.5 nM
same,Ki,[5],> 10000 nM
same,Ki,[6],> 10000 nM
same,Ki,[7],> 10000 nM
same,Ki,[8],10.6 nM
same,Ki,[9],661 nM
same,pKi,[10],5.72
same,pKi,[11],< 5
same,pKi,[12],< 5
same,pKb,[13],8.08
same,Kb,[14],282 nM
same,concentration at 1 h,[15],148 ng/mL
same,concentration at 5 h,[16],89 ng/mL
same,concentration at 24 h,[17],37 ng/mL
same,concentration at 1 h,[18],444 ng/mL
same,concentration at 5 h,[19],306 ng/mL
same,concentration at 24 h,[20],102 ng/mL
same,concentration at 1 h,[21],6570 ng/g
same,concentration at 5 h,[22],6800 ng/g
same,concentration at 24 h,[23],4140 ng/g
same,Kp at 1 h,[24],46
same,Kp at 5 h,[25],95.4
same,Kp at 24 h,[26],114
same,Selectivity ratio,[27],2
same,Activity,[28],Non-toxic
same,pKb,[29],7.96
same,pKb,[30],6.14
same,pKb,[31],6.99
